Test results from US20010023254A1, “Use of sulfamate derivatives for treating impulse control disorders” (priority 2000, published 2001).
Entries after “also recorded” stand apart in the source; their conditions may differ.

Legend:
[1] = tested on: Persons with bulimia nervosa; conditions: cited from earlier work
patients with epilepsy = conditions: cited from earlier work
[2] = tested on: Patients with Overeating, Overweight, and Obesity; test: Patients with overeating, overweight and obesity treated clinically with topiramate; assay type: in vivo, human
Experimental: (§1) In the examples, patients were treated with open-label topiramate starting at 25 mg/qHS and the dosage increased by the patient in 25 mg increments as tolerated by the subjects until a response is seen up to a maximum of 1200 mg. [table]

[3] = tested on: Patients with Binge Eating Disorder (BED); test: Patients with Binge Eating Disorder (BED) treated clinically with open-label topiramate; assay type: in vivo, human
Experimental: as §1

[4] = tested on: patients who coincidentally had binge eating disorder; test: Clinical studies of topiramate in mood disorders; patients who coincidentally had binge eating disorder; assay type: in vivo, human; conditions: several mood disorder patients with coincident binge eating disorder
Excerpt: The activity of the compounds of formula I in treating ICD's was first evidenced in clinical studies conducted to evaluate the efficacy of topiramate in treating mood disorders.

[5] = Pt 5, first trial, max dose 250 mg/day
[6] = Pt 5, second trial, max dose 200 mg/day
[7] = Pt 5, first trial, max dose 100 mg/day
[8] = Pt 5, second trial, max dose 100 mg/day

Which Binge eating [1] does the source give for `O=C1NC(=O)C(c2ccccc2)(c2ccccc2)N1` [phenytoin] here?
The Binge eating was “reduced binge eating”.

Which results are given for `CC1(C)O[C@@H]2[C@@H](CO[C@@]3(COS(N)(=O)=O)OC(C)(C)O[C@@H]23)O1` [Topiramate, 2,3;4,5-bis-O-(1-methylethylidene)-beta -D-fructopyranose sulfamate]?
Efficacy in simple and complex partial seizures and secondarily generalized seizures (patients with epilepsy; clinical trials of human epilepsy, adjunctive therapy or monotherapy): effective; Effect on appetite (patients with epilepsy; controlled trials in patients with epilepsy): suppression of appetite; Effect on weight (patients with epilepsy; controlled trials in patients with epilepsy, unrelated to binge eating): weight loss; Loss of weight ([2]; Pt 1, max dose 700 mg/day): 9 lbs; Response of BD (Bipolar Disorder) ([2]; Pt 1, max dose 700 mg/day): No response of BD; Loss of weight ([2]; Pt 2, max dose 300 mg/day): 16 lbs; Response of BD (Bipolar Disorder) ([2]; Pt 2, max dose 300 mg/day): Remission of BD; Response of overeating ([2]; Pt 2, max dose 300 mg/day): Remission of overeating; Loss of weight ([2]; Pt 3 ADJ, max dose 400 mg/day): 7 lbs; Response of BD (Bipolar Disorder) ([2]; Pt 3 ADJ, max dose 400 mg/day): Moderate improvement of BD; Response of overeating ([2]; Pt 3 ADJ, max dose 400 mg/day): Moderate improvement of overeating; Loss of weight ([2]; Pt 4, max dose 350 mg/day): 5 lbs; Response of BD (Bipolar Disorder) ([2]; Pt 4, max dose 350 mg/day): No response of BD; Response of overeating ([2]; Pt 4, max dose 350 mg/day): Mild improvement in overeating; Loss of weight [2, 5]: 7 lbs; Response of BD (Bipolar Disorder) [2, 5]: First Trial: Worsening of BD; Response of overeating [2, 5]: Mild decrease of overeating; Body weight, before-after [2, 6]: 154-155 lbs; Gain of weight [2, 6]: 1 lb; Response of overeating [2, 6]: Mild decrease of overeating; Loss of weight ([2]; Pt 6, max dose 800 mg/day): 9 lbs; Response of BD (Bipolar Disorder) ([2]; Pt 6, max dose 800 mg/day, BD in remission at start): Worsening of BD; Discontinuation and its reason (adverse effects) ([2]; Pt 7 NLR, max dose 300 mg/day): Discontinued due to anorexia; Loss of weight ([2]; Pt 7 NLR, max dose 300 mg/day): 46 lbs; Response of BD (Bipolar Disorder) ([2]; Pt 7 NLR, max dose 300 mg/day): Worsening of BD; Loss of weight ([2]; Pt 8 PR, max dose 700 mg/day): 19 lbs; Reason for discontinuation (adverse effects) ([2]; Pt 8 PR, max dose 700 mg/day): G.I. Distress; Response of BD (Bipolar Disorder) ([2]; Pt 8 PR, max dose 700 mg/day): Moderate improvement of BD; Response of overeating ([2]; Pt 8 PR, max dose 700 mg/day): Marked improvement in overeating; Loss of weight ([3]; Pt 1, max dose 1200 mg/day): Loss of 107 lbs.; Response of BD (Bipolar Disorder) ([3]; Pt 1, max dose 1200 mg/day): Remission of BD; Response of BED (Binge Eating Disorder) ([3]; Pt 1, max dose 1200 mg/day): Remission of BED; Discontinuation and its reason (adverse effects) ([3]; Pt 2, max dose 150 mg/day): Discontinued due to sedation,; also recorded: cognitive dulling; Loss of weight ([3]; Pt 2, max dose 150 mg/day): Loss of 5 lbs.; Response of BD (Bipolar Disorder) ([3]; Pt 2, max dose 150 mg/day): Mild improvement of BD,; Response of BED (Binge Eating Disorder) ([3]; Pt 2, max dose 150 mg/day): Moderate decrease of BED,; Loss of weight ([3]; Pt 3, max dose 1200 mg/day): Loss of 50.5 lbs; Response of BD (Bipolar Disorder) ([3]; Pt 3, max dose 1200 mg/day): Moderate improvement of BD.; Response of BED (Binge Eating Disorder) ([3]; Pt 3, max dose 1200 mg/day): Remission of BED; Loss of weight ([3]; Pt 4, max dose 900 mg/day): Loss of 30.5 lbs.; Response of BD (Bipolar Disorder) ([3]; Pt 4, max dose 900 mg/day): Moderate improvement of BD,; Response of BED (Binge Eating Disorder) ([3]; Pt 4, max dose 900 mg/day): Marked improvement of BED,; Discontinuation and its reason (adverse effects) [3, 7]: discontinued due to GI distress; Response of BED (Binge Eating Disorder) [3, 7]: First trial: No response of BED,; Loss of weight [3, 8]: Loss of 11 lbs.; Response of BED (Binge Eating Disorder) [3, 8]: Remission of BED; Response of Compulsive Buying [3, 8]: Remission of Compulsive; Response of BD (Bipolar Disorder) ([3]; Pt 5, second trial, max dose 100 mg/day, BD in remission at start): Second Trial: Worsening of BD; Response of BED (Binge Eating Disorder) ([3]; Pt 6, max dose 100 mg/day): No response of BED; Weight change ([3]; Pt 6, max dose 100 mg/day): No weight change; Binging, as reported by patients [4]: marked reduction in their binging; Weight, as reported by patients [4]: concurrent loss in weight
